Test results published in ChEMBL document CHEMBL1201862, “PubChem BioAssay data set” (2004).
Activity calls are given as the source filed them.

Experiments:
X-box-binding protein 1 = molecular target: T1, X-box-binding protein 1 (Homo sapiens, UniProt P17861); type: functional, Cricetulus griseus;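 note: confirmatory dose-response counter-screen serving a CHOP assay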
T1 sequence (P17861 whole entry): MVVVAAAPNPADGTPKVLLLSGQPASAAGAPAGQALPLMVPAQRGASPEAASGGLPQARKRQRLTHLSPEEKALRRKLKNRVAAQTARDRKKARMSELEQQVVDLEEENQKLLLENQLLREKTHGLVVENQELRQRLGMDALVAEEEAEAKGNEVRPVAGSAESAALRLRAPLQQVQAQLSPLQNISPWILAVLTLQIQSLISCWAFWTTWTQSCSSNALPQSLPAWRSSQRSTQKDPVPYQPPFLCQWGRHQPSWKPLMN

Estrogen receptor = molecular target: T2, Estrogen receptor (Homo sapiens, UniProt P03372);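 note: potency for inhibiting coactivator peptide recruitment to the receptor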
T2 sequence (P03372 whole entry): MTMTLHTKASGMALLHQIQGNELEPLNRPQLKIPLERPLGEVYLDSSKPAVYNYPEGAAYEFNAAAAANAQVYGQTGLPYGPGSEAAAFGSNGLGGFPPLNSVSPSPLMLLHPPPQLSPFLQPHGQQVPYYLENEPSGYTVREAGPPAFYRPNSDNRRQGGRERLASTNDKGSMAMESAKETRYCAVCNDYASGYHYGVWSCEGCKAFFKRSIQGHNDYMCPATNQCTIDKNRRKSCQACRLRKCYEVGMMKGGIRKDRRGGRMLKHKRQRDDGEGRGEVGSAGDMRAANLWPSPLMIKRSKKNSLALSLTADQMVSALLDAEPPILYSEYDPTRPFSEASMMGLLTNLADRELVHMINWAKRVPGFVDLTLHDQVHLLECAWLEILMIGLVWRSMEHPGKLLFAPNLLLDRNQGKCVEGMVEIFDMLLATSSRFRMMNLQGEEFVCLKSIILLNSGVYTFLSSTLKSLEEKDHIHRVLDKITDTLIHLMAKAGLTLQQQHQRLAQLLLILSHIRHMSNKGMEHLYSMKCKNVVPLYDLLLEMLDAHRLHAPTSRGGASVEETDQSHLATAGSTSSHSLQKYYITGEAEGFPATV

fMet-Leu-Phe receptor = molecular target: T3, fMet-Leu-Phe receptor (Homo sapiens, UniProt P21462); test: formyl peptide receptor binders – dose response (AID 519); type: functional
T3 sequence (P21462 whole entry): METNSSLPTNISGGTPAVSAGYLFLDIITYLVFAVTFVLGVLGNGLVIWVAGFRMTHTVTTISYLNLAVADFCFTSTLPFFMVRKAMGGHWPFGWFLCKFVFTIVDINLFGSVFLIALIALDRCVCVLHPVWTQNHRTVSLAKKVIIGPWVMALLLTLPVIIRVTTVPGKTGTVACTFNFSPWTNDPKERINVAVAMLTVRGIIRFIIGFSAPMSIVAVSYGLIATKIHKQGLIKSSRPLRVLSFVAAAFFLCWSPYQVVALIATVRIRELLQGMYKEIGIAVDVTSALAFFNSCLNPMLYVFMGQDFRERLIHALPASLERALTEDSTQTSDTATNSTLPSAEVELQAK

[1] = molecular target: Peroxisome proliferator-activated receptor gamma/Nuclear receptor coactivator 1 (Homo sapiens, UniProt P37231); type: functional;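 note: agonist potency as compounds enhance coactivator SRC-1 recruitment to PPARgamma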
[2] = molecular target: Peroxisome proliferator-activated receptor gamma/Nuclear receptor coactivator 3 (Homo sapiens, UniProt P37231); type: functional;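 note: agonist potency for raising coactivator recruitment to the receptor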
[3] = viability loss of HMLE_sh_eGFP cells – cell-based, luminescence, counter-screen for HMLE_sh_ECad selective toxicity project, dose response (AID 463074); type: functional, Homo sapiens;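 note: HMLE human mammary epithelial cells expressing control shRNA against eGFP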
[4] = molecular target: Peroxisome proliferator-activated receptor gamma/Nuclear receptor coactivator 2 (Homo sapiens, UniProt P37231); type: functional;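 note: agonist potency for raising coactivator recruitment to the receptor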
[5] = Luminescence Cell-Based Dose Retest to Confirm Inhibitors of Cancer Stem Cells. [Related pubchem assays (depositor defined):AID2717, AID2721]; type: functional; settings: Homo sapiens
NS3 = NS3 (Hepatitis C virus, UniProt A3EZJ3); test: PubChem AID 2173; design: species or system Hepacivirus hominis
HEK293 [6] = test: inhibition of NOD1-driven NF-kB reporter – cell-based, luminescence, uHTS, primary screen (AID 1578); type: functional; settings: Homo sapiens
HEK293 [7] = test: cells; type: functional, cell-based; settings: Homo sapiens
Streptokinase A = molecular target: T4, Streptokinase A (Streptococcus pyogenes serotype M1, UniProt P10520); test: viability-normalized secreted streptokinase activity reduction – plasminogen activation absorbance, OD405, dose response (AID 1914); type: functional, Streptococcus pyogenes M1 GAS;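 note: secreted streptokinase activity via plasminogen activation per viability signal from cell pellet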
T4 sequence (P10520 whole entry): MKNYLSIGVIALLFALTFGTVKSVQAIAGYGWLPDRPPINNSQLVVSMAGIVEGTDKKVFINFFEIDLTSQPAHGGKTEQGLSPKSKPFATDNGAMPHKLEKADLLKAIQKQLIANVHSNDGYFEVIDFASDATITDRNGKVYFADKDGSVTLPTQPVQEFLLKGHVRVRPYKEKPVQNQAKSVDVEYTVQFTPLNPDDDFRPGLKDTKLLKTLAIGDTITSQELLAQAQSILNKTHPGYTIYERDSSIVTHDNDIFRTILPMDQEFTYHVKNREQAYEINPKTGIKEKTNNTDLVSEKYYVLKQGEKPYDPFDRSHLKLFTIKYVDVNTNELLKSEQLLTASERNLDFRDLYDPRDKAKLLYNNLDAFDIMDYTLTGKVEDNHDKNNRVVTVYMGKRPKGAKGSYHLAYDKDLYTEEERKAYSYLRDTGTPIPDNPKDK

HEK293 [8] = test: cells; type: functional, cell-based; settings: Homo sapiens; remark: listed apart in the source
[9] = molecular target: Nucleotide-binding oligomerization domain-containing protein 2 (Homo sapiens, UniProt Q9HC29); test: inhibition of NOD2-driven NF-kB reporter – cell-based, luminescence, uHTS, HEK293 (AID 1566); type: functional
HEK293 [10] = test: cells; type: functional, cell-based; settings: Homo sapiens; remark: listed apart in the source
Streptococcus = test: GAS UMAA2166 growth inhibition – luminescence, BacTiterGlo, counter-screen for streptokinase expression inhibitor project, dose response (AID 1915); type: functional, organism-based;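 note: potency for reduction of bacterial viability or growth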
HEK293 [11] = test: NOD2 signaling inhibitors in MDP-stimulated cells, cell-based, uHTS, luminescence (AID 2001); type: functional; settings: Homo sapiens
[12] = tested on: Streptococcus sp. 'group A'; test: Streptococcus pyogenes SK(-)GAS viability under kanamycin – luminescence, BacTiterGlo, confirmation, counter-screen for streptokinase expression inhibitor project, dose response (AID 1900); type: functional, organism-based
Paired box protein Pax-8 = Paired box protein Pax-8 (Homo sapiens, UniProt Q06710); test: PAX8 transcriptional activity inhibition in RMG-I – RMG-I cells, luciferase, cherry-pick, dose response (AID 687027); type: functional, cell-based;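 note: luciferase reporter driven by Pax8 target thyroperoxidase promoter measured by SteadyGlo luminescence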
Vero [13] = test: cells; type: functional, cell-based; settings: Chlorocebus sabaeus
Vero [14] = test: cells; type: functional; settings: Chlorocebus sabaeus
Prothrombin = Prothrombin (Homo sapiens, UniProt P00734); test: Thrombin 1536 HTS Dose Response Confirmation. [Related pubchem assays: 1046 (Thrombin 1536 HTS; hits were confirmed in this assay)]; type: functional
[15] = molecular target: Alkaline phosphatase, placental type (Homo sapiens, UniProt P05187); test: human placental alkaline phosphatase inhibition – biochemical, luminescence, confirmation (AID 1512); type: functional
[16] = molecular target: T5, Alkaline phosphatase, tissue-nonspecific isozyme (Homo sapiens, UniProt P05186); test: potency against alkaline phosphatase TNAP – biochemical, luminescent, dose response, SAR follow-up (AID 1056)
T5 sequence (P05186 whole entry): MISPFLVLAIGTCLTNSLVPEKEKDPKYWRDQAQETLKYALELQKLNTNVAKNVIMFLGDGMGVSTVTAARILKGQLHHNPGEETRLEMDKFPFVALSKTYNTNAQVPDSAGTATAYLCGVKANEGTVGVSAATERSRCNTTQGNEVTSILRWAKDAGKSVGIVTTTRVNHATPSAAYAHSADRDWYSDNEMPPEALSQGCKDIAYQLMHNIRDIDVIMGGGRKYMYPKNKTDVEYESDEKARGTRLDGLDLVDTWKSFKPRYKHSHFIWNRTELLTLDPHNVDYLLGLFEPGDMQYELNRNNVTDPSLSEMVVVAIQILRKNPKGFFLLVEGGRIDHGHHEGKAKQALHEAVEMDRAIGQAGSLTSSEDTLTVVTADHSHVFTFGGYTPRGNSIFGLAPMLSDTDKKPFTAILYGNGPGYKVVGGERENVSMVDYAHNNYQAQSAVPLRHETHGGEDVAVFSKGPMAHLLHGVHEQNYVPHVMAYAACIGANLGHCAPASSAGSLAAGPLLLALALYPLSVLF

Estrogen receptor beta = Estrogen receptor beta (Homo sapiens, UniProt Q92731);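 note: recombinant ER-beta bound to coactivator SRC1 peptide in presence of estradiol agonist; inhibitors block coactivator peptide binding and lower the FRET signal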
[17] = molecular target: T6, Ubiquitin-conjugating enzyme E2 N (Homo sapiens, UniProt P61088); type: functional;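 note: Dose-response confirmation in a TR-FRET assay detecting UBC13-driven polyubiquitin chain formation, inhibition measured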
T6 sequence (P61088 whole entry): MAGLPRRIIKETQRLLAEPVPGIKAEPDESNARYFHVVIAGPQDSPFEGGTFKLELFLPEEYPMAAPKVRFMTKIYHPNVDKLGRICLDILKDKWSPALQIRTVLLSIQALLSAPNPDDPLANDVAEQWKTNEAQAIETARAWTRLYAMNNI

Bcl-2-related protein A1 = molecular target: T7, Bcl-2-related protein A1 (Mus musculus, UniProt Q07440); type: functional;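 note: confirmatory dose–response counterscreen on Bfl-1, used to check hits from a UBC13 polyubiquitin inhibitor campaign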
T7 sequence (Q07440 whole entry): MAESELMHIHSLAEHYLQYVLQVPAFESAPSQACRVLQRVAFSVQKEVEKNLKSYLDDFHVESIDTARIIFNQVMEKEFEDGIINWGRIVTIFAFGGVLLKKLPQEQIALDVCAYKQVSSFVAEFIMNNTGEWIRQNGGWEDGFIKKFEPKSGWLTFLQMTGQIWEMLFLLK

HeLa = test: viability loss in HeLa cells – cell-based, 24 h, cherry-picked samples, cytotoxicity control, dose response (AID 504726); type: functional; settings: Homo sapiens;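 note: potency for cytotoxicity as loss of luminescence signal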

Nucleotide-binding oligomerization domain-containing protein 2, sequence (Q9HC29 whole entry, the tested form may be a part): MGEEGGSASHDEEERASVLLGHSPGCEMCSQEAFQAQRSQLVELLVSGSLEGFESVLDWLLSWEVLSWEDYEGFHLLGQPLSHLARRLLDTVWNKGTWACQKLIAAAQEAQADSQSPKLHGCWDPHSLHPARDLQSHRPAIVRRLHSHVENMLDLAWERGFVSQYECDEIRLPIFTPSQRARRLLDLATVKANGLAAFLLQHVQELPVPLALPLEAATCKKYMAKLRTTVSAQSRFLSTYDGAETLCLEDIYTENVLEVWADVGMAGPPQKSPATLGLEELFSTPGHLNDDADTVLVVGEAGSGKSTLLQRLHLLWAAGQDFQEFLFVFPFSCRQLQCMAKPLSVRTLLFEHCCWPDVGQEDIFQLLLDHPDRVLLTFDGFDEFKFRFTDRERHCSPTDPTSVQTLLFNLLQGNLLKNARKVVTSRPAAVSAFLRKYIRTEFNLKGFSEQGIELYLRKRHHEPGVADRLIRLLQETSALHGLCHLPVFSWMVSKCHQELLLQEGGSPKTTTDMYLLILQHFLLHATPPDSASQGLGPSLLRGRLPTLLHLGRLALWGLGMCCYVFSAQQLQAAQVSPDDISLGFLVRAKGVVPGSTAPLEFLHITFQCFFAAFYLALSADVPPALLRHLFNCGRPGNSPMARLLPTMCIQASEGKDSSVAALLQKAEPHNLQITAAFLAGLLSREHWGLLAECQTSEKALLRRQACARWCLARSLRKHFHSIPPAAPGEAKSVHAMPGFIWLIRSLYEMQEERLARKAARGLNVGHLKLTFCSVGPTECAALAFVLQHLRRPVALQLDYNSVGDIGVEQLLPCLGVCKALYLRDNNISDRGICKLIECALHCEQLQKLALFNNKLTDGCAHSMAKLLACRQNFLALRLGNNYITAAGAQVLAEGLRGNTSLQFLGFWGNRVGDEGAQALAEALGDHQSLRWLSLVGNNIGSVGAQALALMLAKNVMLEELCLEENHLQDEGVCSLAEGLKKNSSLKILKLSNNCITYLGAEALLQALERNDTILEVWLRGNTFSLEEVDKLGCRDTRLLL
Alkaline phosphatase, placental type, sequence (P05187 whole entry): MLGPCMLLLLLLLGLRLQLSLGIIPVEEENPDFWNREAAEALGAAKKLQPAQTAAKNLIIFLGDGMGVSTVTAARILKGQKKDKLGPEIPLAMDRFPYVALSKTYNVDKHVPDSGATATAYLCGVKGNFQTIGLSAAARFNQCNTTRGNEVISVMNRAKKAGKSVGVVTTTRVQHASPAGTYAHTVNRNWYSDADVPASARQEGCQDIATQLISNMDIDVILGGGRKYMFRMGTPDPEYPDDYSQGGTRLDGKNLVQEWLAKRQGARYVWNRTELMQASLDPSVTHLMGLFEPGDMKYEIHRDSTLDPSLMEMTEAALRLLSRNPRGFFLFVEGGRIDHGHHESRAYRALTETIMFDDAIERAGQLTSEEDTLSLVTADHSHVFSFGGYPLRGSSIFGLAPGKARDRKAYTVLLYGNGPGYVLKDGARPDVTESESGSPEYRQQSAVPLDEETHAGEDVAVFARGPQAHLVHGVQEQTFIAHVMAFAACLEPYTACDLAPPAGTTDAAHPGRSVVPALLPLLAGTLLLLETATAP
NS3, sequence (A3EZJ3 whole entry): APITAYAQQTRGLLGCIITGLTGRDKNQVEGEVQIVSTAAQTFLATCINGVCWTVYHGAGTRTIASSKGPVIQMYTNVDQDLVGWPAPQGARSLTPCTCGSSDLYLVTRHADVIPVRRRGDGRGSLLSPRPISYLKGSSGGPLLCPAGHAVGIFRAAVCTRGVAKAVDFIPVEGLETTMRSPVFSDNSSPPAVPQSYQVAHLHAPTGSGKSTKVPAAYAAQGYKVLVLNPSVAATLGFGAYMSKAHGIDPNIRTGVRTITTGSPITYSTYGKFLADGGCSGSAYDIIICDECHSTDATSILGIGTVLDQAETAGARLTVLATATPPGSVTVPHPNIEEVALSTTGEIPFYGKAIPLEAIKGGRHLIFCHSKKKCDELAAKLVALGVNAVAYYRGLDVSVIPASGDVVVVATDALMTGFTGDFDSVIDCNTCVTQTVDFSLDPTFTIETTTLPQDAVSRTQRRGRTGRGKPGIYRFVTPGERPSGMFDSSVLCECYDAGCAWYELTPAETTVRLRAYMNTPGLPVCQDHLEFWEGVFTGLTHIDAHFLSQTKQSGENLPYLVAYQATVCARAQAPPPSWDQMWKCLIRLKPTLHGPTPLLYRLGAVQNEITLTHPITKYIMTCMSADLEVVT
Paired box protein Pax-8, sequence (Q06710 whole entry): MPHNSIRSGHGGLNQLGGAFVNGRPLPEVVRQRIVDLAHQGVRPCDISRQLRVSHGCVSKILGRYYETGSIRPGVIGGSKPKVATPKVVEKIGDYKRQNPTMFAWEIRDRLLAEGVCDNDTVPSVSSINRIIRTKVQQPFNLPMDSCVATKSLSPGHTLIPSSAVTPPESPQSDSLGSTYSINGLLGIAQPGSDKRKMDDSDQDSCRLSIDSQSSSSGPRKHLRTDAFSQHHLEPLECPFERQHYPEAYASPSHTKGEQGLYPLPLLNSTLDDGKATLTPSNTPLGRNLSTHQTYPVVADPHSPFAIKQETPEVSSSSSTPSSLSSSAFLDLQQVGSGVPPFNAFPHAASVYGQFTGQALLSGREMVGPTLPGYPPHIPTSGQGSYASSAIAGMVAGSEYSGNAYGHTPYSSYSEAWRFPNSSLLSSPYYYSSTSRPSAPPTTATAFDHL
Peroxisome proliferator-activated receptor gamma/Nuclear receptor coactivator 2, sequence (P37231 whole entry): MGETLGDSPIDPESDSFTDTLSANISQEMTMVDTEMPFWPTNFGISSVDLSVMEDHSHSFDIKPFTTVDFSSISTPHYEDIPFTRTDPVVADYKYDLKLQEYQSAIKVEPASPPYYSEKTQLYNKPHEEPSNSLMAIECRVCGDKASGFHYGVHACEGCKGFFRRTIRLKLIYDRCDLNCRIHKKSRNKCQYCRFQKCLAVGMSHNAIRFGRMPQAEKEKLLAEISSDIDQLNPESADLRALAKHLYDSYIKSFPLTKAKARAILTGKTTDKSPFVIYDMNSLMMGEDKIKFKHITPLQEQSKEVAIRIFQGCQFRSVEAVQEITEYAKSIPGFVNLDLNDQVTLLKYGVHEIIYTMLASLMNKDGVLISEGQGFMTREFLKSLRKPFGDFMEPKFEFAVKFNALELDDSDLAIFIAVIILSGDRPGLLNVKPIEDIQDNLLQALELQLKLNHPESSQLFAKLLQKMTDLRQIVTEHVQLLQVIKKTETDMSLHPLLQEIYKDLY
Peroxisome proliferator-activated receptor gamma/Nuclear receptor coactivator 2, sequence (Q15596 whole entry, further chain): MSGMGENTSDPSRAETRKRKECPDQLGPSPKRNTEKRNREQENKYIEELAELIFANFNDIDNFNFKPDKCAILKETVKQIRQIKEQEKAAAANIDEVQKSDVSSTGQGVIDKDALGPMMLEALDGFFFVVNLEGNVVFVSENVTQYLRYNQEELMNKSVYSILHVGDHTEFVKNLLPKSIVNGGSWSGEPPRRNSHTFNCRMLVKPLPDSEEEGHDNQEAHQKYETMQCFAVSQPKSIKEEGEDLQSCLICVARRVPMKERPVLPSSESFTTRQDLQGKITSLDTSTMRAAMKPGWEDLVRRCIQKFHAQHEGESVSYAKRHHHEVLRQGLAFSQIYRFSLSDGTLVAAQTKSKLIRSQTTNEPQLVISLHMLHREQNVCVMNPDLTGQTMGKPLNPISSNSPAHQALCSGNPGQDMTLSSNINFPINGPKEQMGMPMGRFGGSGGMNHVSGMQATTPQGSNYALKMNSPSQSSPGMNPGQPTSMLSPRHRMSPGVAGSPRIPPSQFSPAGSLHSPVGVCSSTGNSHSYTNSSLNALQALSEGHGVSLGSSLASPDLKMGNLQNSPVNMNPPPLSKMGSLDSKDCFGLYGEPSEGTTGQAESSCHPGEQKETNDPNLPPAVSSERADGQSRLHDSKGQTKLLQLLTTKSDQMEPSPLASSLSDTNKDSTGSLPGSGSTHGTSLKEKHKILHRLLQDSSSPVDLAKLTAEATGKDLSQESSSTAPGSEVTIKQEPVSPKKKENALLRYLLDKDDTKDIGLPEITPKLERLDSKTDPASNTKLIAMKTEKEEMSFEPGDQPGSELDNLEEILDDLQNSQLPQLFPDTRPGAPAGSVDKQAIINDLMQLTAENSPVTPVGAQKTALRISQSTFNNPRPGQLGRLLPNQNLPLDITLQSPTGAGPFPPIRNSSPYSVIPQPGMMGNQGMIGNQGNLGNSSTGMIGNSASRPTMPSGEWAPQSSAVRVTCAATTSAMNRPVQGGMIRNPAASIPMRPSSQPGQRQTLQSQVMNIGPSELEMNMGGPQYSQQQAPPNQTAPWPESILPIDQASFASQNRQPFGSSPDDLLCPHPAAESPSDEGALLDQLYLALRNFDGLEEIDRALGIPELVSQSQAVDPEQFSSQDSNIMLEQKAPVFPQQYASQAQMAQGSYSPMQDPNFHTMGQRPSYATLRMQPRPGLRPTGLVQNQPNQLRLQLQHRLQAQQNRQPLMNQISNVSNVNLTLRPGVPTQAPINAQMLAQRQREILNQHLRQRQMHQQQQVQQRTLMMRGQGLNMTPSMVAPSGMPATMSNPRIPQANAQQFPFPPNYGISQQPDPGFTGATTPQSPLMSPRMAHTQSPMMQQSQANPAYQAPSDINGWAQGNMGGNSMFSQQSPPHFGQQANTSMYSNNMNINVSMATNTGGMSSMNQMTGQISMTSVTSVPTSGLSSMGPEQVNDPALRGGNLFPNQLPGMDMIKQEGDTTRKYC

Structure (SMILES): COc1cc(/C=N/NC(=O)Nc2ccccc2)ccc1OCCOc1ccccc1C
- Absolute IC50 (XBP1) (X-box-binding protein 1): 10 µM

Structure (SMILES): COc1cc(NC(=O)CSc2nc3ccccc3c(=O)n2C)ccc1NC(=O)c1ccco1
- IC50 (Estrogen receptor): 32.5 µM (not active)

Structure (SMILES): COc1ccc(-c2nc(-c3ccc(NC(=O)c4ccc(Br)o4)cc3)no2)cc1OC
- Ki (fMet-Leu-Phe receptor): > 66.7 µM (inactive)
- EC50 [1]: > 79.4 µM (not active)
- EC50 [2]: > 79.4 µM (not active)
- AC50 [3]: 22.8 µM (active)
- Absolute IC50 (XBP1) (X-box-binding protein 1): 10 µM
- EC50 [4]: 49.2 µM (not active)
- AC50 [5]: 2.21 µM (active)

Structure (SMILES): O=C(C1=C(O)C(=O)N(Cc2ccco2)C1c1cccc(Cl)c1)c1ccc2c(c1)OCCO2 (stereo not given)
- IC50 (NS3): 4.61 µM (active)

Structure (SMILES): CCCCc1nc(N2CCN(C(=O)c3ccco3)CC2)c(C#N)c2c1CCCC2
- EC50 (HEK293 [6]): 10.1 µM (active)
- IC50 (HEK293 [7]): 15.6 µM (active)
- EC50 (Streptokinase A): 8.54 µM (active)
- IC50 (HEK293 [8]): > 20 µM (inactive)
- EC50 [9]: 7.59 µM (active)
- IC50 (HEK293 [10]): 11.9 µM (active)
- EC50 (Streptococcus): 14.4 µM (active)
- IC50 (HEK293 [11]): 12.2 µM (inactive)
- EC50 [12]: 7.4 µM (active)

Structure (SMILES): CNc1ccc(Br)cc(C(=O)/C=C/c2cc(OC)ccc2OC)c1=O
- AC50 (Paired box protein Pax-8): 7.83 µM (active)
- IC50 (NS3): 11.3 µM (not active)
- IC50 (Vero [13]): 7.29 µM (active)
- CC50 (Vero [14]): 23.1 µM (active)

Structure (SMILES): Cc1nc(SCC(=O)N2CCc3ccccc3C2)c2c(C)c(C)sc2n1
- EC50 (HEK293 [6]): 6.12 µM (active)
- IC50 (Prothrombin): > 50 µM (not active)
- IC50 (HEK293 [8]): > 20 µM (inactive)
- EC50 [9]: 9.64 µM (active)
- IC50 (HEK293 [11]): 9.12 µM (inactive)

Structure (SMILES): Cc1ccc(C)c(N2CCN(C(=O)C34CC5CC(C3)CC(n3nnc(C)n3)(C5)C4)CC2)c1
- EC50 (HEK293 [6]): 7.6 µM (active)
- IC50 (HEK293 [7]): 13.1 µM (active)
- IC50 (HEK293 [8]): > 20 µM (inactive)
- EC50 [9]: 5.6 µM (active)
- IC50 (HEK293 [10]): 6.27 µM (active)
- IC50 (HEK293 [11]): 4.61 µM (active)

Structure (SMILES): O=C(COc1ccccc1)Nc1ccc(Cl)c(-c2nc3ncccc3o2)c1
- IC50 (Estrogen receptor): > 50 µM (not active)

Structure (SMILES): Cc1cc(=O)[nH]c(-n2[nH]c(C)cc2=O)n1
- IC50 [15]: > 100 µM (inactive)

Structure (SMILES): Cc1ccc(-c2nnc(SCC(=O)c3ccc(O)c(O)c3)n2C)cc1
- IC50 [16]: > 100 µM (inactive)
- IC50 [15]: 11.7 µM (active)

Structure (SMILES): CSCCOC(=O)c1[nH]c2c(c1C)C(=O)CC(c1ccco1)C2 (stereo not given)
- IC50 (Estrogen receptor beta): > 50 µM (not active)
- IC50 (Estrogen receptor): > 50 µM (not active)

Structure (SMILES): Cc1ccc(N(C(=O)c2snc(C(N)=O)c2N)C(C(=O)NCC2CCCO2)c2c[nH]c3ccccc23)cc1 (stereo not given)
- IC50 [17]: 12.1 µM (active)
- IC50 (Bcl-2-related protein A1): > 20 µM (inactive)

Structure (SMILES): Cc1cc(C)nc(SCC(=O)c2ccc(Cl)cc2Cl)n1
- IC50 [16]: > 100 µM (inactive)
- IC50 [15]: > 100 µM (inactive)

Structure (SMILES): Cn1c(=O)c2c(nc(SCC(=O)NCc3ccc4c(c3)OCO4)n2Cc2ccc(Cl)cc2)n(C)c1=O
- AC50 (HeLa): 64.6 µM (active)
